This note sets out measurements from patent publication US20030224983A1, “Stimulation of beta cell proliferation” (priority 1998, published 2003).

In assay [1] the test system is beta cells (insulin positive cells in pancreatic islet cells from newborn rats). The experiment in a line: beta cell proliferation in vitro, BrdU incorporation in insulin positive islet cells. It is filed as cell-based, rat. The conditions noted are these: for number of labelled beta cells: then 10 μM BrdU for 90 min, absence of hormones 0.6%. The source says:
Diabetes is characterized by insufficiency of the pancreatic beta cells to maintain normoglycemia. In type 1 diabetes (IDDM) this is due to destruction of the beta cells by an autoimmune process whereas in type 2 diabetes (NIDDM) it is due to a combination of beta cell deficiency and peripheral insulin resistance. […] However in diabetic patients the number of beta cells is reduced and it is therefore pertinent not only to improve the function of the beta cells by therapeutical means but also to increase the number of beta cells. […] In our efforts to identify beta cell growth factors we discovered that GLP-1 indeed could stimulate beta cell proliferation in vitro. The proliferation was measured as incorporation of the thymidine analogue 5-bromo-2-deoxyuridine into DNA in insulin positive cells in pancreatic islet cells from newborn rats. […] This may have important implication for the treatment and/or prevention of diabetes.
The protocol was a slight modification of the procedure described by Billestrup and Nielsen (Billestrup N, Nielsen J H: The stimulatory effect of growth hormone, prolactin, and placental lactogen on beta cell proliferation is not mediated by insulin-like growth factor-I. Endocrinology 1991; 129:883-888.). Pancreatic islets were isolated from newborn rats by the collagenase method and cultured for 2-5 days before use. 2000 islets were transfered to 15 ml plastic tubes and washed once with Ca/Mg-free Hank's balanced salt solution. 500 μl cold trypsin solution (0.05% trypsin, 0.53 mM EDTA in Ca/Mg-free Hank's solution). The islets were dispersed by aspiration with a pipette. 5 ml culture medium RPMI 1640 with 2% human serum was added. 75,000 islet cells were then placed in tissue culture flasks previously coated with ECL cell attachment matrix (Upstate Biotechnology) with 2 ml culture medium with 1 μg/ml human growth hormone (hGH) (Norditropin, Novo Nordisk). After 7 days in culture at 37C the medium was replaced with culture medium without hGH or with addition of 100 nM GLP-1, 5 μM Arg^34, Lys^26(N-ε-(γ-Glu(N-α-hexadecanoyl)))-GLP-1(7-37) or 200 ng/ml hGH. After 2 days in culture 10 μM 5-bromo-2-deoxyuridine (BrdU) was added and after 90 min the medium was removed and the cells fixed in 1% paraformaldehyde in 0.1 M phosphate buffer. The cells were then stained with antibodies to BrdU and insulin as described (Billestrup and Nielsen, 1991). The number of labelled beta cells in the absence of hormones was 0.6% and in the presence of hGH 3.5%. In the presence of GLP-1 the number was 1.7% and in the presence of Arg^34, Lys^26(N-ε-(γ-Glu(N-α-hexadecanoyl)))-GLP-1(7-37) 1.4%.
For orientation: Uptake of a labelled nucleoside into DNA is a usual measure of proliferation.

For assay [2], the system named is beta-cells of ZDF rats. The assay can be described thus: relative mass of islet beta-cells, point counting stereologic techniques. It is filed as in vivo, rat. The text has this:
(§1) The rat experiment described in example 2 were examined for effects of Arg^34, Lys^26(N-ε-(γ-Glu(N-α-hexadecanoyl)))-GLP-1(7-37) (named GLP-1 in FIG. 3 and 4) on beta-cell growth and neogenesis.
Neighbor sections were stained for insulin and the combination of glucagon-somatostatin-pancreatic polypeptide for the measurement of the relative mass of islet beta-cells and nonbeta-cells. The beta-cells were stained for insulin as described above. The nonbeta-cells were stained with a mixture of monoclonal mouse anti-glucagon+rabbit anti-somatostatin+rabbit anti-pancreatic polypeptide, detected by biotinylated swine anti-multible Ig's, avidin peroxidase, and developed with DAB and CuSO4 to give a dark brown stain. The volume fractions of beta- and nonbeta-cells were estimated by point counting stereologic techniques.

Assay [3] concerns male Zucker Diabetic Fatty fa/fa (ZDF) rat. The assay can be described thus: oral glucose tolerance test in ZDF rats. It is filed as in vivo. The conditions noted are these: group C, 150 μg/kg bi-daily, after 36 days; 11-hour fast, 1 g/kg glucose by oral gavage; total AUC, p<0.0002 by ANOVA. The source says:
(§2) The male Zucker Diabetic Fatty fa/fa (ZDF) rat is a model of Type 2 diabetes. The rats are insulin resistant but normoglycemic from birth and they develop diabetes from about week 7 to week 10 of age. During the transitional period, the animals go through a state of impaired glucose tolerance. Although the animals are hyperinsulinemic before diabetes onset and during the early stages of diabetes, they later lose glucose-stimulated insulin secretion and finally become almost completely insulinopenic.
(§3) We have studied the effects of Arg^34, Lys^26(N-ε-(γ-Glu(N-α-hexadecanoyl)))-GLP-1(7-37) therapy during a period of time when the animals would normally progress from having impaired glucose tolerance to having overt Type 2 diabetes. Three groups of male ZDF rats (Genetic Models Inc, Indianapolis, Ind., U.S.A.) were studied and dosed subcutaneously bi-daily with either vehicle (group A), 30 (group B) or 150 μg/kg (group C) of Arg^34, Lys^26(N-ε-(γ-Glu(N-α-hexadecanoyl)))-GLP-1(7-37), n=6 per group. Animals were between 7 and 8 weeks old when dosing was initiated, and fed glucose levels were not different between the groups before dosing began. […] After 36 days of dosing, an oral glucose tolerance test was performed in the animals after an 11-hour fast. One g/kg of glucose was administered by oral gavage and subsequent measurements of blood glucose and plasma insulin were made.

For assay [4] the test system is unchanged. The assay can be described thus: blood glucose during a normal 24-hour feeding schedule in ZDF rats. It is filed as in vivo.
Source text: as §2, §3

In assay [5] the test system is beta-cells of ZDF rats. The experiment in a line: beta-cell proliferation rate in vivo, BrDU and insulin double staining of pancreas sections. The arrangement: species or system rat. The conditions noted are these: 30 and 150 μg/kg bi-daily, 100 mg BrDU/kg i.p. six hours before sacrifice. The protocol:
as §1
Bromodeoxyuridine (BrDU) is incorporated in newly synthesized DNA and thus will label replicating cells. Six hours before sacrifice the rats were given an injection of 100 mg BrDU/kg intraperitoneally. After sacrifice the pancreata were fixed in 4% PFA, dehydrated, embedded in paraffin, and […] sections double stained for BrDU and insulin for the measurement of beta-cell proliferation rate.
Insulin was stained with guinea pig anti-insulin, peroxidase-coupled rabbit anti-guinea pig Ig, and developed with AEC to give a red stain. BrDU was stained by monoclonal mouse anti-BrDU, biotinylated goat anti-mouse Ig, avidin peroxidase, and developed with DAB and CuSO4 to give a dark brown stain. BrDU stained nuclei of cells with insulin stained cytoplasm was examined in more than 1500 cells per section. The examination of the sections were carried out with the origin of the sections blinded to the observer.

Regarding “GLP-1: The term GLP-1 means GLP-1(7-37) or GLP-1(7-36) amide [reference compound]”, in assay [1] (100 nM GLP-1, 2 days in culture), the “number of labelled beta cells” value was 1.7%. Further, the “number of labelled beta cells (in words)” value in assay [1] (BrdU incorporation into DNA in insulin positive cells, newborn rat islet cells) is “increase the number of labelled beta cells”.
As for “Arg^34, Lys^26(N-ε-(γ-Glu(N-α-hexadecanoyl)))-GLP-1(7-37)”, the “beta-cell fraction of the total pancreas, compared to vehicle treated rats” value in assay [2] (30 ng/g for 6 weeks) is “significantly higher”. Moreover, in assay [2] (150 ng/g, compared to 30 ng/g), the “beta-cell fraction of the total pancreas” value is reported as “no further increase”. In addition, the “number of labelled beta cells” value in assay [1] (5 μM, 2 days in culture) is recorded as 1.4%. In addition, in assay [3], the “glycemic level in oral glucose tolerance test, compared to groups A and B” value was “significantly lower”. The “blood glucose levels during a normal 24-hour feeding schedule” value in assay [4] (group B (low dose), 30 μg/kg subcutaneously bi-daily, after 10 days of dosing) was “hyperglycemic”. In assay [4] (group C, 150 μg/kg subcutaneously bi-daily, after 10 days of dosing), the “blood glucose levels during a normal 24-hour feeding schedule, compared to initial measurements” value is “unchanged compared to the initial measurements”. The “blood glucose levels during a normal 24-hour feeding schedule, compared to vehicle- and low-dose-treated animals” value in assay [4] (group C, 150 μg/kg subcutaneously bi-daily, after 10 days, total area under the curve, p<0.0002 by ANOVA) was “significantly lower”. In addition, the “fraction of beta-cells that had incorporated BrDU” value in assay [5] was “dose dependent increase”.
As for “hGH: human growth hormone (hGH) (Norditropin, Novo Nordisk)”, in assay [1] (200 ng/ml hGH, 2 days in culture), the “number of labelled beta cells” value came to 3.5%.
